The record followed here is patent US12492199B2, “Pyridopyrimidines as histamine H4-receptor inhibitors” (FAES FARMA, S.A., priority 2018, dated 2025).

One may read the IC50 as the concentration at which inhibition is half-maximal. Higher therefore signals lower potency. A word on the inhibition: it is the percentage by which the read-out fell short of the control. Lower therefore signals a response near the control. Usually Ki stands for the dissociation constant of the complex between target and ligand, obtained from inhibition or displacement.

Molecules are shown by their SMILES. Where two headings read alike, the source gives them in different places.

For this assay, the target named is human H4 receptor (Homo sapiens (Human), UniProt Q9H3N8). Put plainly: H4 Binding assay ([3H]histamine competition, membranes from CHO-K1 cells transfected with human H4 receptor). On the procedure: Affinity for histamine H4-receptor was determined by H4 Binding assay:
• Membranes from CHO-K1 cells transfected with human H4 receptor and microplates of 96-well format were used. • For competition studies cell membranes were homogenated in Tris-HCl 50 mM, EDTA 5 mM, pH 7.4 and added to the microplate at the concentration of approximately 15 μg/well. […] Non specific binding was defined using 10 μM unlabeled histamine and the total incubation volume was 275 μl per well. • Incubations were performed under gentle agitation at 25° C. for 60 min and concluding with a rapid vacuum filtration using pre-soaked filters (0.5% polyethylenimine). After ten rapid washes with cold wash buffer (50 mM Tris-HCl buffer) the filter plates were dried at room temperature for 30 min. • Finally, scintillation liquid (Microscint 20) was added to the whole microplate in order to measure the radioactivity reattained on the filters using a specific scintillation counter (Top Count—NXT). […] H1 Binding Assay Materials

The mark [1] stands for this setting: affinity for human histamine H4 receptor, class symbols, read-out: ACTIVITY CLASS hH4R (Ki).

human H4 receptor, sequence (Q9H3N8 whole entry): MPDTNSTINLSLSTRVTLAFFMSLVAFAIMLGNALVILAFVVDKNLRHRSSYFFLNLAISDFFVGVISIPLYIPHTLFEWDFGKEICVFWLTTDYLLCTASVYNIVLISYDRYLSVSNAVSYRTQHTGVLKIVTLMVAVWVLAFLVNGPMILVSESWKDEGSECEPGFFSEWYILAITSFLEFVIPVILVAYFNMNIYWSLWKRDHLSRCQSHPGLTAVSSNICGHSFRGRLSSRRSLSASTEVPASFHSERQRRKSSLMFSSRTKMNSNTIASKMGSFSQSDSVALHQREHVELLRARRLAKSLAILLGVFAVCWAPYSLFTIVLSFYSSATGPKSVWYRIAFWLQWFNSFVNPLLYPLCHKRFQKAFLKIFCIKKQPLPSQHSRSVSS

Regarding `CN1CCN(c2nc(NCc3cccs3)c3cnc(Cl)cc3n2)CC1` [Example 3P, reference compound], the IC50 (histamine H4 receptor binding) came to 889 nM. For the same compound, the inhibition at 1 µM (histamine H4 receptor binding, compounds initially evaluated at 1 μM) came to 68%. Where the note is “histamine H4 receptor, comparative compounds, read-out: Ki”, the Ki came to 340 nM.
`CN1CCN(c2nc(NCCc3cccs3)c3cc(Cl)ncc3n2)CC1` [Example 6, 6-chloro-2-(4-methylpiperazin-1-yl)-N-(2-(thiophen-2-yl)ethyl)pyrido[3,4-d]pyrimidin-4-amine]: the Ki under setting [1] is below 1000 nM.
As for `CN1CCN(c2nc(NCc3nccs3)c3cc(Cl)ncc3n2)CC1` [Example 7, 6-chloro-2-(4-methylpiperazin-1-yl)-N-(thiazol-2-ylmethyl)pyrido[3,4-d]pyrimidin-4-amine], under setting [1], the Ki is below 1000 nM.
On the same count and under the same terms, the figure for `CN1CCN(c2nc(NCc3ncc[nH]3)c3cc(Cl)ncc3n2)CC1` [Example 8, N-((1H-imidazol-2-yl)methyl)-6-chloro-2-(4-methylpiperazin-1-yl)pyrido[3,4-d]pyrimidin-4-amine] is below 1000 nM; for `CNS(=O)(=O)CCNc1nc(N2CCN(C)CC2)nc2cnc(Cl)cc12` [Example 14, 2-((6-chloro-2-(4-methylpiperazin-1-yl)pyrido[34-d]pyrimidin-4-yl)amino)-N-methylethane-1-sulfonamide] it is below 100 nM; for `CN1CCN(c2nc(NCCS(=O)(=O)NCc3ccccc3)c3cc(Cl)ncc3n2)CC1` [Example 15, N-benzyl-2-((6-chloro-2-(4-methylpiperazin-1-yl)pyrido[3,4-d]pyrimidin-4-yl)amino)ethane-1-sulfonamide] it is below 100 nM.
`CN1CCN(c2nc(NCCS(=O)(=O)Nc3ccccc3)c3cc(Cl)ncc3n2)CC1` [Example 16, 2-((6-chloro-2-(4-methylpiperazin-1-yl)pyrido[3,4-d]pyrimidin-4-yl)amino)-N-phenylethane-1-sulfonamide]: the Ki under setting [1] was below 100 nM.
For the compound `CN1CCN(c2nc(NCCS(=O)(=O)N3CCOCC3)c3cc(Cl)ncc3n2)CC1` [Example 18, 6-chloro-2-(4-methylpiperazin-1-yl)-N-(2-(morpholinosulfonyl)ethyl)pyrido[3,4-d]pyrimidin-4-amine], the Ki under setting [1] is below 100 nM.
As for `CCCCNc1nc(N2CCN(C)CC2)nc2cnc(Cl)cc12` [Example 22, N-butyl-6-chloro-2-(4-methylpiperazin-1-yl)pyrido[3,4-d]pyrimidin-4-amine], under setting [1], the inhibitory constant (Ki) was below 1000 nM.
Turning to `O=S(=O)(CCNc1nc(N2CCNCC2)nc2cnc(Cl)cc12)Nc1ccccc1` [Example 26, 2-((6-chloro-2-(piperazin-1-yl)pyrido[3,4-d]pyrimidin-4-yl)amino)-N-phenylethane-1-sulfonamide], under setting [1], the Ki is below 100 nM.
Same read-out and setting: the figure for `CN(c1ccccc1)S(=O)(=O)CCNc1nc(N2CCNCC2)nc2cnc(Cl)cc12` [Example 27, 2-((6-chloro-2-(piperazin-1-yl)pyrido[3,4-d]pyrimidin-4-yl)amino)-N-methyl-N-phenylethane-1-sulfonamide] is below 100 nM; for `O=S(=O)(CCNc1nc(N2CCNCC2)nc2cnc(Cl)cc12)N1CCOCC1` [Example 28, 6-chloro-N-(2-(morpholinosulfonyl)ethyl)-2-(piperazin-1-yl)pyrido[3,4-d]pyrimidin-4-amine] it is below 100 nM.
Consider `O=S(=O)(CCNc1nc(N2CCN3CCCC3C2)nc2cnc(Cl)cc12)Nc1ccccc1` (stereo not shown) [Example 37, 2-((6-chloro-2-(hexahydropyrrolo[1,2-a]pyrazin-2(1H)-yl)pyrido[3,4-d]pyrimidin-4-yl)amino)-N-phenylethane-1-sulfonamide], for which the Ki under setting [1] is below 100 nM.
With `O=S(=O)(CCNc1nc(N2CCN3CCCC3C2)nc2cnc(Cl)cc12)N1CCOCC1` (stereo not shown) [Example 38, 6-chloro-2-(hexahydropyrrolo[1,2-a]pyrazin-2(1H)-yl)-N-(2-(morpholinosulfonyl)ethyl)pyrido[3,4-d]pyrimidin-4-amine], under setting [1], the Ki is below 100 nM.
`O=S(=O)(CCNc1nc(C2=CCNCC2)nc2cnc(Cl)cc12)Nc1ccccc1` [Example 41, 2-((6-chloro-2-(1,2,3,6-tetrahydropyridin-4-yl)pyrido[3,4-d]pyrimidin-4-yl)amino)-N-phenylethane-1-sulfonamide]: the Ki was below 100 nM.
For `Cc1cc2c(NCc3cccs3)nc(N3CCN(C)CC3)nc2cn1` [Example 46, 6-methyl-2-(4-methylpiperazin-1-yl)-N-(thiophen-2-ylmethyl)pyrido[3,4-d]pyrimidin-4-amine], the Ki under setting [1] was below 1000 nM.
Still for that read-out and setting: with `CCCc1cc2c(NCCc3cccs3)nc(N3CCN(C)CC3)nc2cn1` [Example 50, 2-(4-methylpiperazin-1-yl)-6-propyl-N-(2-(thiophen-2-yl)ethyl)pyrido[3,4-d]pyrimidin-4-amine] the figure was below 1000 nM.
On the same count and under the same terms, with `CC(C)c1cc2c(NCc3ccco3)nc(N3CCN(C)CC3)nc2cn1` [Example 51, N-(furan-2-ylmethyl)-6-isopropyl-2-(4-methylpiperazin-1-yl)pyrido[3,4-d]pyrimidin-4-amine] the figure was below 1000 nM; with `CC(C)c1cc2c(NCc3cccs3)nc(N3CCN(C)CC3)nc2cn1` [Example 52, 6-isopropyl-2-(4-methylpiperazin-1-yl)-N-(thiophen-2-ylmethyl)pyrido[3,4-d]pyrimidin-4-amine], below 100 nM.
On the same count and under the same terms, the figure for `CC(C)c1cc2c(NCCc3cccs3)nc(N3CCN(C)CC3)nc2cn1` [Example 53, 6-isopropyl-2-(4-methylpiperazin-1-yl)-N-(2-(thiophen-2-yl)ethyl)pyrido[3,4-d]pyrimidin-4-amine] is below 1000 nM.
Turning to `CN1CCN(c2nc(NCCc3nccs3)c3cc(Cl)ncc3n2)CC1` [Example 70, 6-chloro-2-(4-methylpiperazin-1-yl)-N-(2-(thiazol-2-yl)ethyl)pyrido[3,4-d]pyrimidin-4-amine], the Ki under setting [1] was below 1000 nM.
The same measure, in the same setting: the figure for `CN1CCN(c2nc(NCCS(N)(=O)=O)c3cc(Cl)ncc3n2)CC1` [Example 71, 2-((6-chloro-2-(4-methylpiperazin-1-yl)pyrido[3,4-d]pyrimidin-4-yl)amino)ethane-1-sulfonamide] is below 100 nM; for `Cc1ccccc1NS(=O)(=O)CCNc1nc(N2CCN(C)CC2)nc2cnc(Cl)cc12` [Example 73, 2-((6-chloro-2-(4-methylpiperazin-1-yl)pyrido[3,4-d]pyrimidin-4-yl)amino)-N-(o-tolyl)ethane-1-sulfonamide] it is below 100 nM; for `CN1CCN(c2nc(NCCS(=O)(=O)Nc3ccccc3N)c3cc(Cl)ncc3n2)CC1` [Example 75, N-(2-aminophenyl)-2-((6-chloro-2-(4-methylpiperazin-1-yl)pyrido[3,4-d]pyrimidin-4-yl)amino)ethane-1-sulfonamide] it is below 1000 nM.
As for `CN1CCN(c2nc(NCCS(=O)(=O)Nc3cccc(Cl)c3)c3cc(Cl)ncc3n2)CC1` [Example 76, 2-((6-chloro-2-(4-methylpiperazin-1-yl)pyrido[3,4-d]pyrimidin-4-yl)amino)-N-(3-chlorophenyl)ethane-1-sulfonamide], the Ki under setting [1] is below 100 nM.
For `CN1CCN(c2nc(NCCS(=O)(=O)Nc3cccc(OC(F)(F)F)c3)c3cc(Cl)ncc3n2)CC1` [Example 77, 2-((6-chloro-2-(4-methylpiperazin-1-yl)pyrido[3,4-d]pyrimidin-4-yl)amino)-N-(3-(trifluoromethoxy)phenyl)ethane-1-sulfonamide], the Ki under setting [1] is below 1000 nM.
